Results: the supplement of paper PMC8149375

Experiments:
Details in all cases: treatment: drug + dasatinib (fixed dose, not stated); 5 days
769-P [1] = test: GI50 of drug in presence of dasatinib; higher = less potent
Description: (§1)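 Primary HTS combination arm: 8 RCC cell lines treated with 8 doses (up to 10 uM) of each library drug plus a fixed dose of dasatinib (dose not stated) for 5 days; viability read by CellTiter-Glo and normalised to DMSO. GI50 was fitted with XLfit, AUC is the area under the dose-response curve, and minimum viability is the lowest fraction of DMSO viability across doses.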

786-O [2] = test: as above
Description: as §1

A498 [3] = test: as above
Description: as §1

ACHN [4] = test: as above
Description: as §1

CAKI-1 [5] = test: as above
Description: as §1

SN12C [6] = test: as above
Description: as §1

TK-10 [7] = test: as above
Description: as §1

UO-31 [8] = test: as above
Description: as §1

769-P [9] = test: minimum viability across doses, drug + dasatinib, relative to DMSO (fraction); higher = less growth inhibition
Description: as §1

786-O [10] = test: as above
Description: as §1

A498 [11] = test: as above
Description: as §1

ACHN [12] = test: as above
Description: as §1

CAKI-1 [13] = test: as above
Description: as §1

SN12C [14] = test: as above
Description: as §1

TK-10 [15] = test: as above
Description: as §1

UO-31 [16] = test: as above
Description: as §1

769-P [17] = test: AUC of dose-response viability curve, drug + dasatinib, normalised to DMSO (arbitrary (AUC of normalised viability)); higher = less growth inhibition
Description: as §1

786-O [18] = test: as above
Description: as §1

A498 [19] = test: as above
Description: as §1

ACHN [20] = test: as above
Description: as §1

CAKI-1 [21] = test: as above
Description: as §1

SN12C [22] = test: as above
Description: as §1

TK-10 [23] = test: as above
Description: as §1

UO-31 [24] = test: as above
Description: as §1

COC(=O)Nc1ccc(-c2nc(N3CCOCC3)c3cnn(C4CCN(Cc5cccnc5)CC4)c3n2)cc1 [WYE-687] + Cc1nc(Nc2ncc(C(=O)Nc3c(C)cccc3Cl)s2)cc(N2CCN(CCO)CC2)n1 [dasatinib]
GI50 of drug (769-P [1]): 481 nM
GI50 of drug (786-O [2]): 618 nM
GI50 of drug (A498 [3]): 2280 nM
GI50 of drug (ACHN [4]): 83.3 nM
GI50 of drug (CAKI-1 [5]): 153 nM
GI50 of drug (SN12C [6]): 414 nM
GI50 of drug (TK-10 [7]): 231 nM
GI50 of drug (UO-31 [8]): 572 nM
minimum viability across doses (769-P [9]): 0.074
minimum viability across doses (786-O [10]): 0.212
minimum viability across doses (A498 [11]): 0.251
minimum viability across doses (ACHN [12]): 0.0388
minimum viability across doses (CAKI-1 [13]): 0.0365
minimum viability across doses (SN12C [14]): 0.13
minimum viability across doses (TK-10 [15]): 0.058
minimum viability across doses (UO-31 [16]): 0.00676
AUC of dose-response viability curve (769-P [17]): 1.81
AUC of dose-response viability curve (786-O [18]): 2.02
AUC of dose-response viability curve (A498 [19]): 2.89
AUC of dose-response viability curve (ACHN [20]): 1.38
AUC of dose-response viability curve (CAKI-1 [21]): 1.51
AUC of dose-response viability curve (SN12C [22]): 1.78
AUC of dose-response viability curve (TK-10 [23]): 1.79
AUC of dose-response viability curve (UO-31 [24]): 2.8

C=CC(=O)Nc1cccc(Oc2nc(Nc3ccc(N4CCN(C)CC4)cc3)ncc2Cl)c1 [WZ3146] + Cc1nc(Nc2ncc(C(=O)Nc3c(C)cccc3Cl)s2)cc(N2CCN(CCO)CC2)n1 [dasatinib]
GI50 of drug (769-P [1]): 523 nM
GI50 of drug (786-O [2]): 878 nM
GI50 of drug (A498 [3]): 3060 nM
GI50 of drug (ACHN [4]): 72.3 nM
GI50 of drug (CAKI-1 [5]): 345 nM
GI50 of drug (SN12C [6]): 997 nM
GI50 of drug (TK-10 [7]): 373 nM
GI50 of drug (UO-31 [8]): 553 nM
minimum viability across doses (769-P [9]): 0.056
minimum viability across doses (786-O [10]): 0.0305
minimum viability across doses (A498 [11]): 0.301
minimum viability across doses (ACHN [12]): 0.034
minimum viability across doses (CAKI-1 [13]): 0.00112
minimum viability across doses (SN12C [14]): 0.0852
minimum viability across doses (TK-10 [15]): 0.0372
minimum viability across doses (UO-31 [16]): 0.00923
AUC of dose-response viability curve (769-P [17]): 1.85
AUC of dose-response viability curve (786-O [18]): 1.88
AUC of dose-response viability curve (A498 [19]): 2.76
AUC of dose-response viability curve (ACHN [20]): 1.21
AUC of dose-response viability curve (CAKI-1 [21]): 1.47
AUC of dose-response viability curve (SN12C [22]): 1.92
AUC of dose-response viability curve (TK-10 [23]): 1.76
AUC of dose-response viability curve (UO-31 [24]): 2.32

C=CC(=O)Nc1cccc(Sc2nc(Nc3ccc(N4CCN(C)CC4)cc3)ncc2Cl)c1 [WZ8040] + Cc1nc(Nc2ncc(C(=O)Nc3c(C)cccc3Cl)s2)cc(N2CCN(CCO)CC2)n1 [dasatinib]
GI50 of drug (769-P [1]): 1160 nM
GI50 of drug (786-O [2]): 1480 nM
GI50 of drug (A498 [3]): 8300 nM
GI50 of drug (ACHN [4]): 127 nM
GI50 of drug (CAKI-1 [5]): 1650 nM
GI50 of drug (SN12C [6]): 3880 nM
GI50 of drug (TK-10 [7]): 652 nM
GI50 of drug (UO-31 [8]): 2340 nM
minimum viability across doses (769-P [9]): 0.0198
minimum viability across doses (786-O [10]): 0.00713
minimum viability across doses (A498 [11]): 0.113
minimum viability across doses (ACHN [12]): 0.00268
minimum viability across doses (CAKI-1 [13]): 0.00162
minimum viability across doses (SN12C [14]): 0.00446
minimum viability across doses (TK-10 [15]): 0.0196
minimum viability across doses (UO-31 [16]): 0.0164
AUC of dose-response viability curve (769-P [17]): 2.02
AUC of dose-response viability curve (786-O [18]): 2.05
AUC of dose-response viability curve (A498 [19]): 3.23
AUC of dose-response viability curve (ACHN [20]): 1.5
AUC of dose-response viability curve (CAKI-1 [21]): 1.96
AUC of dose-response viability curve (SN12C [22]): 2.18
AUC of dose-response viability curve (TK-10 [23]): 1.96
AUC of dose-response viability curve (UO-31 [24]): 2.72

COC[C@H]1OC(=O)c2coc3c2[C@@]1(C)C1=C(C3=O)[C@@H]2CCC(=O)[C@@]2(C)C[C@@H]1OC(C)=O [Wortmannin] + Cc1nc(Nc2ncc(C(=O)Nc3c(C)cccc3Cl)s2)cc(N2CCN(CCO)CC2)n1 [dasatinib]
GI50 of drug (769-P [1]): > 10000 nM
GI50 of drug (786-O [2]): 32.5 nM
GI50 of drug (A498 [3]): 84.8 nM
GI50 of drug (ACHN [4]): 41.4 nM
GI50 of drug (CAKI-1 [5]): 15.8 nM
GI50 of drug (SN12C [6]): 53.4 nM
GI50 of drug (TK-10 [7]): > 10000 nM
GI50 of drug (UO-31 [8]): > 10000 nM
minimum viability across doses (769-P [9]): 0.487
minimum viability across doses (786-O [10]): 0.00996
minimum viability across doses (A498 [11]): 0.153
minimum viability across doses (ACHN [12]): 0.425
minimum viability across doses (CAKI-1 [13]): 0.123
minimum viability across doses (SN12C [14]): 0.342
minimum viability across doses (TK-10 [15]): 0.633
minimum viability across doses (UO-31 [16]): 0.688
AUC of dose-response viability curve (769-P [17]): 2.25
AUC of dose-response viability curve (786-O [18]): 1.62
AUC of dose-response viability curve (A498 [19]): 2.76
AUC of dose-response viability curve (ACHN [20]): 1.87
AUC of dose-response viability curve (CAKI-1 [21]): 1.38
AUC of dose-response viability curve (SN12C [22]): 2.16
AUC of dose-response viability curve (TK-10 [23]): 2.46
AUC of dose-response viability curve (UO-31 [24]): 2.3

Cc1ccc(S(=O)(=O)Nc2nc3ccccc3nc2Nc2ccc3nsnc3c2)cc1 [XL147] + Cc1nc(Nc2ncc(C(=O)Nc3c(C)cccc3Cl)s2)cc(N2CCN(CCO)CC2)n1 [dasatinib]
GI50 of drug (769-P [1]): > 10000 nM
GI50 of drug (786-O [2]): > 10000 nM
GI50 of drug (A498 [3]): > 10000 nM
GI50 of drug (ACHN [4]): > 10000 nM
GI50 of drug (CAKI-1 [5]): > 10000 nM
GI50 of drug (SN12C [6]): > 10000 nM
GI50 of drug (TK-10 [7]): > 10000 nM
GI50 of drug (UO-31 [8]): > 10000 nM
minimum viability across doses (769-P [9]): 0.634
minimum viability across doses (786-O [10]): 0.642
minimum viability across doses (A498 [11]): 0.924
minimum viability across doses (ACHN [12]): 0.551
minimum viability across doses (CAKI-1 [13]): 0.764
minimum viability across doses (SN12C [14]): 0.651
minimum viability across doses (TK-10 [15]): 0.743
minimum viability across doses (UO-31 [16]): 0.909
AUC of dose-response viability curve (769-P [17]): 2.42
AUC of dose-response viability curve (786-O [18]): 2.67
AUC of dose-response viability curve (A498 [19]): 3.43
AUC of dose-response viability curve (ACHN [20]): 2.12
AUC of dose-response viability curve (CAKI-1 [21]): 2.82
AUC of dose-response viability curve (SN12C [22]): 2.42
AUC of dose-response viability curve (TK-10 [23]): 2.87
AUC of dose-response viability curve (UO-31 [24]): 3.44

COc1cc2nccc(Oc3ccc(NC(=O)C4(C(=O)Nc5ccc(F)cc5)CC4)cc3)c2cc1OC [XL-184 free base (Cabozantinib)] + Cc1nc(Nc2ncc(C(=O)Nc3c(C)cccc3Cl)s2)cc(N2CCN(CCO)CC2)n1 [dasatinib]
GI50 of drug (769-P [1]): 2000 nM
GI50 of drug (786-O [2]): 29.5 nM
GI50 of drug (A498 [3]): 8990 nM
GI50 of drug (ACHN [4]): 267 nM
GI50 of drug (CAKI-1 [5]): 193 nM
GI50 of drug (SN12C [6]): 915 nM
GI50 of drug (TK-10 [7]): 2770 nM
GI50 of drug (UO-31 [8]): 1840 nM
minimum viability across doses (769-P [9]): 0.135
minimum viability across doses (786-O [10]): 0.25
minimum viability across doses (A498 [11]): 0.442
minimum viability across doses (ACHN [12]): 0.0617
minimum viability across doses (CAKI-1 [13]): 0.0187
minimum viability across doses (SN12C [14]): 0.213
minimum viability across doses (TK-10 [15]): 0.136
minimum viability across doses (UO-31 [16]): 0.0162
AUC of dose-response viability curve (769-P [17]): 2.07
AUC of dose-response viability curve (786-O [18]): 2.2
AUC of dose-response viability curve (A498 [19]): 3.34
AUC of dose-response viability curve (ACHN [20]): 1.6
AUC of dose-response viability curve (CAKI-1 [21]): 1.76
AUC of dose-response viability curve (SN12C [22]): 2.07
AUC of dose-response viability curve (TK-10 [23]): 2.33
AUC of dose-response viability curve (UO-31 [24]): 2.75

COCC[n+]1c2c(n(Cc3cnccn3)c1C)C(=O)c1ccccc1C2=O [YM155] + Cc1nc(Nc2ncc(C(=O)Nc3c(C)cccc3Cl)s2)cc(N2CCN(CCO)CC2)n1 [dasatinib]
GI50 of drug (769-P [1]): 10.7 nM
GI50 of drug (786-O [2]): > 10000 nM
GI50 of drug (A498 [3]): 8.38 nM
GI50 of drug (ACHN [4]): 5.43 nM
GI50 of drug (CAKI-1 [5]): 4.86 nM
GI50 of drug (SN12C [6]): 8.39 nM
GI50 of drug (TK-10 [7]): 14.4 nM
GI50 of drug (UO-31 [8]): 45 nM
minimum viability across doses (769-P [9]): 0.00674
minimum viability across doses (786-O [10]): 0.00497
minimum viability across doses (A498 [11]): 0.00896
minimum viability across doses (ACHN [12]): 0.00126
minimum viability across doses (CAKI-1 [13]): 0.00438
minimum viability across doses (SN12C [14]): 0.00231
minimum viability across doses (TK-10 [15]): 0.0206
minimum viability across doses (UO-31 [16]): 0.00698
AUC of dose-response viability curve (769-P [17]): 0.63
AUC of dose-response viability curve (786-O [18]): 0.302
AUC of dose-response viability curve (A498 [19]): 0.476
AUC of dose-response viability curve (ACHN [20]): 0.479
AUC of dose-response viability curve (CAKI-1 [21]): 0.385
AUC of dose-response viability curve (SN12C [22]): 0.503
AUC of dose-response viability curve (TK-10 [23]): 0.933
AUC of dose-response viability curve (UO-31 [24]): 1.3
